“Also recorded” adds a separate entry of the source.
Legend:
[1] = ORAC assay of peptide mixed with mucus (synergy); set-up: Increase in ORAC antioxidant activity of peptide combined with mucus versus sum of the individual systems: concentration or dose not given beside the values; conditions: for Increase in ORAC antioxidant activity of peptide combined with mucus versus sum of the individual systems: one part peptide to four parts mucus; for ORAC of the peptide alone in the synergy experiment: one part peptide to four parts phosphate buffer, Figure 3 captive, Figure 4 wild series
Experimental: The ORAC assay followed the protocol outlined by Coscueta et al.. […] Fluorescence was monitored for 80 min at 1 min intervals. Each sample, standard, blank, or control, analysis was duplicated. The final ORAC values were expressed as µmol TE/µmol of peptide for the peptides and µmol TE /mg of protein for the digestion retentate and permeate contents. The synergistic interaction between the mucus and peptides was performed by mixing the peptides with mucus at a ratio of one part peptide to four parts mucus. In addition, control analyses were performed by mixing one part of the phosphate buffer with four parts of the mucus and another with one part of the peptide to four parts of the phosphate buffer. The mixtures were then tested in the ORAC assay. The final ORAC values were expressed as µM TE.

[2] = High-performance size exclusion chromatography (HPSEC): molecular size and aggregation; assay type: physicochemical; conditions: for Aggregation behaviour in HPSEC: Agilent AdvanceBio SEC 130 Å, isocratic, buffers 344 mM or 700 mM at pH 3.0, 5.0, 7.0, PDA detection
Experimental: The HPSEC column was eluted with 344 mM of a phosphate buffer at pH 7.0, replicating the conditions used to analyze the mucus peptide fraction in our previous article. During the analysis, we observed the formation of peptide aggregates, specifically oligomers, including dimers, trimers, and tetramers. Various buffer conditions were tested to determine if a particular pH and ionic strength would enable the peptides to expose their theoretical molecular weights, as specified in the GenScript technical datasheet. Since seawater typically has an ionic strength of approximately 700 mM [10], buffers with this ionic strength were tested at pH 3.0, 5.0, and 7.0, as well as at 344 mM of ionic strength.
The peptides’ molecular size validation was determined using high-performance size exclusion chromatography (HPSEC). An Agilent AdvanceBio SEC column (Agilent Technologies, London, UK), 2.7 µm in particle size, 130 Å in pore size, and 7.8 in inner diameter × 300 mm in length, was used. The column was eluted isocratically using various buffers with different pH and ionic strengths, namely, 344 mM at pH 7 (0.15 M of a phosphate buffer with NaH2PO4), 700 mM at pH 7 (0.15 M of a phosphate buffer with NaH2PO4 and NaCl), 344 mM at pH 5 (0. 15 M of an acetate buffer with acetic acid and NaCl), 700 mM at pH 5 (0.15 M of an acetate buffer with acetic acid and NaCl), 344 mM at pH 3 (0.05 M of a formate buffer with fomic acid and NaCl), and 700 mM at pH 3 (0.05 M of a formate buffer with formic acid and NaCl) at a flow rate of 1 mL/min. The sample injection volume was 10 µL. The instrument used was Waters 2690 with a photodiode array detector (PDA 190–600 nm). The software Empower 3 was used for data collection. To determine the molecular weights of the resulting chromatogram peaks, a calibration curve was made with the following protein standards: Ovalbumin (44,300 Da), Myoglobin (17,600 Da), Cytochrome C (12,327 Da), Aprotinin (6511 Da), Neurotensin (1672 Da), Angiotensin-II (1040 Da), Tyr-Phe dipeptide (328.4 Da), and L-tryptophan (204 Da).

[3] = ABTS radical scavenging assay; conditions: for Effect of pH and ionic strength on ABTS antioxidant activity: ABTS radical solution in HPSEC buffers, 344 and 700 mM, pH 3.0, 5.0, 7.0; for ABTS radical scavenging value: SD
Experimental: ABTS radical activity is based on an antioxidant’s capacity to scavenge the ABTS’s oxidized state. For this, ABTS radical scavenging activity was performed in a 96-well microplate, following the method described by. The absorbance was measured with a multidetection plate reader (Synergy H1, Winooski, VT, USA). For each sample, the standard and control analyses were duplicated. All measurements were performed in duplicate. The results are expressed in µmol of Trolox equivalents/µmol of peptide. To test the antioxidant activity under different pH and ionic strength conditions, the ABTS radical solution was prepared using the same buffers employed in the HPSEC analysis.

[4] = pH 3 and 344 mM ionic strength, means (n ≥ 3) ± SD
[5] = pH 7.0 and 700 mM ionic strength, means (n ≥ 3) ± SD

For DPPNPKNL [HdKNL], the “Increase in ORAC antioxidant activity of peptide combined with mucus versus sum of the individual systems” value (shortened to “Increase in ORAC antioxidant activity”) ([1]; captive mucus sample) was 126%, the “ORAC of the peptide alone in the synergy experiment” value [1] was “no antioxidant activity was detected” and the “Aggregation behaviour in HPSEC” value [2] was “aggregate formation increased at higher pH conditions; also recorded: aggregation was still observed”. The “Effect of pH and ionic strength on ABTS antioxidant activity” value (“Effect of pH and ionic strength” for short) [3] was “remained unaffected by a decrease in pH” and the ABTS ([3]; peptide in H2O (HdPPP in DMSO), means (n ≥ 3) ± SD, nd: not detected) was “no antioxidant activity was observed”.
With EDNSELGQETPTLR [HdKTLR] the “ORAC of the peptide alone in the synergy experiment” value [1] was “no antioxidant activity was detected”, the “Aggregation behaviour in HPSEC” value [2] was “formation of aggregates into oligomers; also recorded: pronounced aggregation” and the “Molecular weight observed by HPSEC (aggregate)” value ([2]; buffers with ionic strengths of 344 mM and 700 mM at pH 7.0 and pH 5.0, theoretical molecular weight 1588.4 Da) was “approximately 7836 Da”. The “Effect of pH and ionic strength” value [3] was “no observable antioxidant activity”.
In the case of PFPGPLPN [HdLPN], the “Increase in ORAC antioxidant activity” value ([1]; captive mucus sample) was 51%, the “Increase in ORAC antioxidant activity” value ([1]; wild mucus sample) was 54% and the “Aggregation behaviour in HPSEC” value [2] was “forming only dimers; also recorded: aggregation was still observed”. For the same sequence, the “Effect of pH and ionic strength” value [3] was “significant decrease in antioxidant activity”, the “ABTS radical scavenging value” [3, 4] was 0.012 ± 0.004 µmol TE/µmol of peptide and the “ABTS radical scavenging value” [3, 5] was 0.283 ± 0.177 µmol TE/µmol of peptide.
With VYPFPGPLPN [HdVLPN] the “Increase in ORAC antioxidant activity” value ([1]; captive mucus sample) was 31%, the “Increase in ORAC antioxidant activity” value ([1]; wild mucus sample) was 44% and the “Aggregation behaviour in HPSEC” value [2] was “degree of polymerization was less prominent than in the other peptides; also recorded: aggregation was still observed”. For the same sequence, the “Effect of pH and ionic strength” value [3] was “significant decrease in antioxidant activity”, the “ABTS radical scavenging value” [3, 4] was 0.163 ± 0.002 µmol TE/µmol of peptide and the “ABTS radical scavenging value” [3, 5] was 0.827 ± 0.021 µmol TE/µmol of peptide.
